Data on six compounds can be found in patent US4965280A, “Antifungal carbinols” (E. I. Du Pont de Nemours and Company, priority 1989, dated 1990).

In brackets after ≈: the same amount, converted by molar mass. Like-named read-outs stand apart in the source and are kept apart here.

In experiment [1] the test system is Candida albicans ATCC 11651. The experiment in a line: In vivo systemic Candida infection in mice, primary assay. The settings on record: Candida albicans, 150 mg/kg per day, read-out: % Survival. Also on record: species or system Candida albicans; CF-1 female mice. The gist of the method:
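CF-1 female mice (20 g, 10 per group) were infected IV with 0.2 ml of 1×10^7/ml C. albicans ATCC 11651, then given test compound subcutaneously at 50 or 150 mg/kg/day at 1 and 6 h post-infection and once daily for three more days. Survival was followed for 21 days against infected untreated mice; ≥70% protection at 14 days was scored active.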

In the next experiment the test system is Venturia inaequalis. In words: Example A apple scab. The experiment is classed as in vivo. The settings on record: read-out: disease control rating, Ex. A. The gist of the method: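 Spray application to run-off on apple seedlings; compound at 100 or 20 ppm in water with 250 ppm TREM 014 (polyhydric alcohol esters) and 6% acetone of final volume.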
Experiment [2] has as its system Cercosporidium personatum. The experiment in a line: Example B Peanut Late Leafspot. In kind it is in vivo. The following applies: Nothopassalora personata, read-out: disease control rating, Ex. B. The gist of the method:
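Spray suspensions at 100 or 20 ppm, prepared from acetone solutions (acetone 6% of final volume) in water carrying 250 ppm of a polyhydric alcohol ester surfactant, were applied to peanut seedlings until run-off.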

The subject of another experiment is Botrytis cinerea. The experiment in a line: Example C bean grey mold. The settings on record: Botrytis cinerea, 24 h, read-out: disease control rating, Ex. C. In kind it is in vivo. The gist of the method:
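Spray rates: 100 and 20 ppm. Vehicle: purified water with 6% acetone by final volume plus 250 ppm TREM 014 (polyhydric alcohol esters). Host plants, broad bean seedlings, were wetted until run-off.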

Experiment [3] has as its system Erysiphe graminis f. sp. tritici. In words: Example D wheat powdery mildew. The experiment is classed as in vivo. The following applies: Blumeria graminis, 144 h, read-out: disease control rating, Ex. D. The gist of the method:
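Seedling wheat was treated by spraying to run-off; formulation used acetone as co-solvent (6% final) and TREM 014 surfactant at 250 ppm, with compound at 100 or 20 ppm.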

Another experiment concerns Pyricularia oryzae. The experiment in a line: whole plant or invertebrate. In kind it is in vivo. The settings on record: Pyricularia oryzae, 120 h; for pest or weed control at 100 ppm: read-out: disease control rating, Ex. E, 100 PPM.
The subject of experiment [4] is Rhizoctonia solani. In words: Example F rice sheath blight. The experiment is classed as in vivo. The following applies: Rhizoctonia solani, 144 h, read-out: disease control rating, Ex. F. Summed up: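 Foliar run-off spray, rice seedlings: compound at 100 or 20 ppm in aqueous 250 ppm polyhydric alcohol ester surfactant, acetone 6% v/v final.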
The next experiment has as its system Puccinia recondita. The experiment in a line: Example G wheat leaf rust. In kind it is in vivo. The following applies: read-out: disease control rating, Ex. G.
A further experiment deals with Phytophthora infestans. The experiment in a line: whole plant or invertebrate. In kind it is in vivo. The settings on record: Phytophthora infestans, in Solanum lycopersicum, read-out: disease control rating, Ex. H, 100 PPM.
In the next experiment the test system is Plasmorpara viticola. In words: Example I grape downy mildew. The experiment is classed as in vivo. The following applies: read-out: disease control rating, Ex. I. Summed up:
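Grape seedlings sprayed to run-off; test suspension 100 or 20 ppm compound, acetone 6% v/v final, 250 ppm TREM 014 in purified water.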

The test system of a further experiment is Pythium aphanadermatum. In words: Example J cucumber damping off. The settings on record: Pythium, 336 h; 5 kg/ha; read-out: disease control rating, Ex. J. In kind it is in vivo. The gist of the method:
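This cucumber damping-off test used soil and seeds infested with a sand–cereal preparation carrying mycelium of Pythium aphanadermatum. Incubation took place in a growth chamber held at 30° C. for 14 days. Afterwards, the extent of disease was scored as a disease control rating.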

Experiment [5] has as its system Rhizoctonia solani. The experiment in a line: Example K cotton blight. The following applies: 336 h, 5 kg/ha, read-out: disease control rating, Ex. K. The experiment is classed as in vivo. The protocol:
[…] Seeds and soil were then inoculated with a mixture of sand, cereal and mycelium of the fungus Rhizoctonia solani, causal agent of cotton blight, and incubated in a growth chamber at 30° C. for 14 days. Disease ratings were then made.

Experiment [6] has as its system Fusarium oxysporum f. sp. cucumerinum. In words: Example L cucumber wilt. The experiment is classed as in vivo. The following applies: 336 h, 5 kg/ha, read-out: disease control rating, Ex. L. The protocol: […] Seeds and soil were then inoculated with a mixture of sand, cereal and mycelium of the fungus Fusarium oxysporum f. sp. cucumerinum, causal agent of cucumber wilt, and incubated in a growth chamber at 30° C. for 14 days. Disease ratings were then made.

Another experiment relates to Sclerotium rolfsii. In words: Example M southern blight. The experiment is classed as in vivo. The settings on record: Agroathelia rolfsii, 336 h; 5 kg/ha; read-out: disease control rating, Ex. M. The method, then: […] Seeds and soil were then inoculated with a mixture of sand, cereal and mycelium of the fungus Sclerotium rolfsii, causal agent of sourthern blight, and incubated in a growth chamber at 30° C. for 14 days. Disease ratings were then made.

The test system of experiment [7] is Candida albicans ATCC 11651. In words: In vitro antifungal MIC, microtiter broth dilution. The following applies: for MIC: Candida albicans, ATCC11651, 24 h, read-out: MIC values, C. albicans, 30°, 24 hours. On the technique in general: Broth dilution looks for growth in wells or tubes with falling amounts of substance.
Procedure: In vitro activity (Table 5) is expressed in terms of the minimal inhibitory concentration (MIC) of the test compound which inhibits the growth of yeasts and fungi.
The target organisms, Candida albicans ATCC 11651 and Aspergillus fumigatus ATCC 28214 are standardized, [V. Bezjak, J. Clinical Micro., 21 509-512 (1984)], to a concentration of 10^7 organisms/ml and maintained at -70° until use. Test compounds are solubilized in dimethyl sulfoxide (DMSO) and diluted in Eagle's Minimum Essential Medium (EMEM) broth to achieve a final concentration of 200 μg/ml. Stock solutions of standard antifungal agents are stored at -70° and diluted in EMEM as required.
The in vitro assay utilizes a microtiter broth dilution technique [L. Polonelli and G. Morace, Mycopathologia, 86, 21-28 (1984)] and C. […] The appropriate wells are inoculated with the required organism (C. albicans at 1×10^4 organisms/ml and A. fumigatus at 5×10^5 organisms/ml) and the assay incubated at 30° for 24 hours.
For experiment [8], the system named is Aspergillus fumigatus ATCC 28214. In words: In vitro antifungal MIC, microtiter broth dilution. The following applies: for MIC: Aspergillus fumigatus, ATCC28214, 24 h, read-out: MIC values, A. fumigatus, 30°, 24 hours.

Take `C=C(CN(C)C)C(O)(Cn1cncn1)c1ccc(Cl)cc1Cl` (centres unmarked) [Example 453]: the responders at 150 mg/kg in experiment [1] (ATCC11651, 168 h, day 7) was determined as 60%; in [1] (ATCC11651, 336 h, day 14), 40%; in [1] (ATCC11651, 504 h, day 21) it was 30%. Moreover, the pest or weed control at 100 ppm is 55% in the experiment on Venturia inaequalis; 32% in [2]; 75% in the experiment with Botrytis cinerea; 94% in experiment [3]; 0% in the experiment on Pyricularia oryzae; 0% with Rhizoctonia solani [4]. The pest or weed control at 100 ppm with Puccinia recondita stood at 100%; with Phytophthora infestans, 0%; in the experiment with Plasmorpara viticola, 0%. The pest or weed control at 5000 g/ha (in the experiment with Pythium aphanadermatum; with Rhizoctonia solani [5]; in experiment [6]; in the experiment on Sclerotium rolfsii) was 0% throughout. Besides, the MIC (as a rule, the lowest concentration that inhibits growth of the organism) was 1.6 µg/mL (≈ 4.69 µM) in experiment [7] and > 100 µg/mL in [8].

As to `C=C(c1cccc(Cl)c1)C(O)(Cn1cncn1)c1ccc(Cl)cc1Cl` (centres unmarked) [Example 40, 2-(2,4-Dichlorophenyl)-3-(3-chlorophenyl)-1-(1H-1,2,4-triazol-1-yl)-3-buten-2-ol], the responders at 150 mg/kg in experiment [1] (ATCC11651, 168 h, day 7) came out at 100%; in experiment [1] (ATCC11651, 336 h, day 14), 100%. Also, the pest or weed control at 100 ppm with Venturia inaequalis was found to be 19%; in experiment [2], 100%; with Botrytis cinerea, 80%; in experiment [3] it was 91%; in the experiment with Pyricularia oryzae, 7%; in the experiment on Rhizoctonia solani [4], 61%. Besides, the pest or weed control at 100 ppm was 96% in the experiment on Puccinia recondita, 0% in the experiment on Phytophthora infestans and 0% in the experiment on Plasmorpara viticola. For the same compound, the pest or weed control at 5000 g/ha (in the experiment on Pythium aphanadermatum; in the experiment with Rhizoctonia solani [5]; in experiment [6]; in the experiment on Sclerotium rolfsii) was 0% in each case. The MIC in experiment [7] was 0.4 µg/mL (≈ 1.01 µM); in experiment [8], 3.2 µg/mL (≈ 8.11 µM).

For `C=C(c1ccc(Cl)cc1)C(O)(Cn1cncn1)c1ccc(Cl)cc1Cl` (centres unmarked) [Example 26, 2-(2,4-Dichlorophenyl)-3-(4-chlorophenyl)-1-(1H-1,2,4-triazol-1-yl)-3-buten-2-ol], the responders at 150 mg/kg in experiment [1] (ATCC11651, 168 h, day 7) was 100%; in experiment [1] (ATCC11651, 336 h, day 14), 100%; in experiment [1] (ATCC11651, 504 h, day 21), 100%. Moreover, the pest or weed control at 100 ppm in the experiment on Venturia inaequalis is 100%; in [2], 100%; with Botrytis cinerea it was 96%; in experiment [3], 86%; in the experiment on Pyricularia oryzae it was 31%; with Rhizoctonia solani [4], 61%. For the same compound, the pest or weed control at 100 ppm in the experiment with Puccinia recondita is 97%; in the experiment with Phytophthora infestans, 23%; in the experiment with Plasmorpara viticola, 86%. The pest or weed control at 5000 g/ha with Pythium aphanadermatum amounted to 0%; in the experiment with Rhizoctonia solani [5] it was 25%; in experiment [6], 25%; with Sclerotium rolfsii, 35%. In [7] (30°, 24 hours), the “MIC values, C. albicans” value is ≤ 0.4 µg/mL. Besides, the “MIC values, A. fumigatus” value in experiment [8] (30°, 24 hours) amounted to 12.5 µg/mL (≈ 31.7 µM).

Regarding `C=CCOC(Cn1cncn1)(C(=C)c1ccc(F)cc1)c1ccc(F)cc1` (centres unmarked) [Example 360], the responders at 150 mg/kg was determined as 100% in experiment [1] (ATCC11651, 168 h, day 7); 60% in experiment [1] (ATCC11651, 336 h, day 14); 40% in [1] (ATCC11651, 504 h, day 21). Further, the pest or weed control at 100 ppm in the experiment on Venturia inaequalis was 88%; in experiment [2], 100%; in the experiment on Botrytis cinerea, 71%; in [3], 86%; in the experiment on Pyricularia oryzae, 74%; with Rhizoctonia solani [4], 49%. The results for the pest or weed control at 100 ppm in the experiment with Puccinia recondita, in the experiment on Phytophthora infestans and in the experiment with Plasmorpara viticola were 93%, 0% and 0%, respectively. Further, the pest or weed control at 5000 g/ha (in the experiment with Pythium aphanadermatum; in the experiment on Rhizoctonia solani [5]; in experiment [6]; in the experiment on Sclerotium rolfsii) was 0% in each case. Further, the figures for the MIC in [7] and in [8] were 0.8 µg/mL (≈ 2.18 µM) and 100 µg/mL (≈ 272 µM), respectively.

Regarding `C=C(c1cccc2ccccc12)C(O)(Cn1cncn1)c1ccc(F)cc1` (centres unmarked) [Example 208], the responders at 150 mg/kg in experiment [1] (ATCC11651, 168 h, day 7) turned out to be 0%; in experiment [1] (ATCC11651, 336 h, day 14), 0%; in [1] (ATCC11651, 504 h, day 21) it was 0%. The pest or weed control at 100 ppm in the experiment with Venturia inaequalis worked out at 84%; in experiment [2], 37%; in the experiment with Botrytis cinerea it was 83%; in experiment [3], 76%; in the experiment with Pyricularia oryzae, 4%; in the experiment with Rhizoctonia solani [4] it was 61%. Moreover, the pest or weed control at 100 ppm in the experiment on Puccinia recondita was 97%; in the experiment with Phytophthora infestans it was 0%; in the experiment on Plasmorpara viticola, 74%. For the same compound, the pest or weed control at 5000 g/ha (in the experiment with Pythium aphanadermatum; in the experiment on Rhizoctonia solani [5]; in experiment [6]; with Sclerotium rolfsii) was 0% each time. For the same compound, the figures for the MIC in experiment [7] and in experiment [8] were 1.6 µg/mL (≈ 4.45 µM) and 50 µg/mL (≈ 139 µM), respectively.

`C=C(c1ccc(C(F)(F)F)cc1)C(O)(Cn1cncn1)c1ccc(Cl)cc1` (centres unmarked) [Example 67]: the responders at 150 mg/kg was 100% in experiment [1] (ATCC11651, 168 h, day 7); 100% in experiment [1] (ATCC11651, 336 h, day 14); 100% in [1] (ATCC11651, 504 h, day 21). Moreover, the pest or weed control at 20 ppm came out at 58% in the experiment with Venturia inaequalis (20 PPM); 99% in experiment [2] (20 PPM); 60% with Botrytis cinerea (20 PPM); 85% in [3] (20 PPM); 0% in the experiment on Pyricularia oryzae (read-out: disease control rating, Ex. E, 20 PPM); 35% with Rhizoctonia solani [4] (20 PPM). Besides, the pest or weed control at 20 ppm in the experiment with Puccinia recondita (20 PPM) was determined as 89%. The pest or weed control at 100 ppm with Botrytis cinerea came out at 75%; in the experiment on Pyricularia oryzae, 0%; in the experiment with Rhizoctonia solani [4] it was 68%; in the experiment on Phytophthora infestans, 2%; in the experiment with Plasmorpara viticola it was 1%. The pest or weed control at 5000 g/ha (in the experiment on Pythium aphanadermatum; in the experiment with Rhizoctonia solani [5]; in experiment [6]; in the experiment with Sclerotium rolfsii) was 0% throughout. The MIC was found to be 0.03 µg/mL (≈ 0.0762 µM) in experiment [7] and 100 µg/mL (≈ 254 µM) in experiment [8].
